From patent EP0135657B1, “Antibacterial drugs and/or feed concentrates” (priority 1983, dated 1985)

Experiments:
[1] = test system: Bordatella bronchiseptica; details: relatively high doses needed; J. Am. Vet. Med. Assoc., 6 [1979], 597-600; cited from earlier work
[2] = test system: Bordatella bronchiseptica; experiment: Minimum inhibitory concentration in vitro in broth containing phenol red and glucose (Difco); format: cell-based; details: for Mindesthemmkonzentration durch Chlorchinaldol in Kombination verringert auf: fraction of the MIC of the substance alone, stated for the bacteria used, for Bordatella bronchiseptica as 1 order of magnitude; for Werte der Mindesthemmkonzentration [MIC-Werte] in mg/l in Bezug auf die Bakterienstämme Bordatella bronchiseptica: single substance, inhibits bacterial growth for 24 hours
Excerpt: (§1) Diese Feststellung wird durch die folgenden Versuchsergebnisse bestätigt. Die Mindesthemmkoncentrationen von Kombinationen von 2 bis 4 der obigen Verbindungen in erfindungsgemäßen Arzneimitteln beziehungsweise der einzelnen obigen Verbindungen als vergleichssubstanzen wurden in vitro gegen die Bakterienstämme Bordatella bronchiseptica und Pasteurella multocid in einer Phenolrot und Glucose enthaltenden Brühe [Hersteller: Firma Difco] bestimmt. In der folgenden Tabelle sind die Werte der Mindesthemmkonzentration [MIC-Werte] in mg/I, die den Bakterienzuwachs 24. Stunden lang hemmen, zusammengestellt.
(§2) Die Werte der Mindesthemmkonzentration [MIC-Werte] bei den Kombinationen bedeuten, daß die angegebenen Wirkstoffe gemeinsam in den angegebenen Konzentrationen das Wachstum der beiden verschiedenen Bakterienstämme bereits hemmen.

Pasteurella multocida = experiment: as above; format: cell-based; details: single substance; inhibits bacterial growth for 24 hours
Excerpt: as §1, §2

Schnupfen = experiment: Efficacy against Schnupfen in in vivo investigations; details: Chlorchinaldol alone; therapeutically effective dose not reached in vivo
Excerpt: (§3) Obwohl jeder der obigen Wirkstoffe eine antibakterielle Wirkung hat, sind verhältnismäßig hohe Dosen von 2-[Methoxycarbonylhydrazono)-methylen]-chinoxalin-1,4-dioxyd {Carbadox®} und 2,4-Diamino-5-[3',4',5'-tri-(methoxy)-benzyl] pyrimidin {Trimethoprim} bei alleiniger Verwendung derselben erforderlich. Was 2-(Methyl)-5,7-di-(chlor)-8-(hydroxy)-chinolin {Chlorchinaldol} betrifft, ist dieses eine bekannte Verbindung mit einer milden baktericiden und fungiciden Wirkung. Sie wird in erster Linie für dermatologische Zwecke, zur Behandlung von Hautinfektionen, verwendet. Obwohl bei 2-(Methyl)-5,7-di-(chlor)-8-(hydroxy)-chinolin (Chlorchinaldol) der in vitro bestimmte Wert der Mindesthemmkonzentration sehr niedrig ist, weshalb eine hohe Wirksamkeit zu erwarten wäre, ist es an sich zum Beispiel gegen Schnupfen unwirksam, wobei bei Untersuchungen in vivo die therapeutisch wirksame Dosis nicht erreicht wurde. 2-(Methyl)-5,7-di-(chlor)-8-(hydroxy)-chinolin (Chlorchinaldol) wird sehr schlecht absorbiert, weshalb im Blutplasma eine Konzentration von höchstens […] erreicht wird. Zur therapeutischen Wirkung wird jedoch eine wesentlich höhere Konzentration, nämlich etwa 15 bis […], gebraucht. Mit 2-(Methyl)-5,7-di-(chlor)-8-(hydroxy)-chinolin {Chlorchinaldol} allein wird also die zur Therapie erforderliche Konzentration im Plasma nicht erreicht. […]

[3] = Blood plasma concentration reached in in vivo investigations; details: Chlorchinaldol alone, very poorly absorbed, therapeutic effect said to need about 15 bis 20 p/ml, read-out: Konzentration im Blutplasma
Excerpt: as §3

Compound | Ergebnisse der Behandlung mit Bordatella bronchiseptica infizierter Tiere [1] | Mindesthemmkonzentration durch Chlorchinaldol in Kombination verringert auf [2] | Werte der Mindesthemmkonzentration [MIC-Werte] in mg/l in Bezug auf die Bakterienstämme Bordatella bronchiseptica [2] | Werte der Mindesthemmkonzentration [MIC-Werte] in mg/l in Bezug auf die Bakterienstämme Pasteurella multocida (Pasteurella multocida) | Wirksamkeit gegen Schnupfen (Schnupfen) | Cmax [3] [ng/mL]
COC(=O)NN=Cc1c[n+]([O-])c2ccccc2[n+]1[O-] [Carbadox®, 2-[(Methoxycarbonylhydrazono)-methylen]-chinoxalin-1,4-dioxyd] | verhältnismäßig günstige Ergebnisse | 1/10 | 50 mg/L | 10 mg/L | – | –
Cc1ccc2c(Cl)cc(Cl)c(O)c2n1 [Chlorchinaldol, 2-(Methyl)-5,7-di-(chlor)-8-(hydroxy)-chinolin] | – | – | 0,5 mg/l | 0,5 mg/l | unwirksam | ≤ 5000
CN(C)[C@@H]1C(O)=C(C(N)=O)C(=O)[C@@]2(O)C(O)=C3C(=O)c4c(O)cccc4[C@@](C)(O)[C@H]3[C@H](O)[C@@H]12 [Oxytetracyclin, 4-Dimethylamino-3,5,6,10,12,12a-hexahydroxy-6-methyl-1,11-dioxo-1,4,4a,5,5a,6,11,12a-octahydro-naphthacen-2-carbonsäureamid] | – | 1/10 | 5 mg/L | 5 mg/L | – | –
COc1cc(Cc2cnc(N)nc2N)cc(OC)c1OC [Trimethoprim, 2,4-Diamino-5-[3',4',5'-tri-(me-thoxy)-benzyl]-pyrimidin] | – | 1/10 | 50 mg/L | 50 mg/L | – | –
